Assay results taken from ChEMBL document CHEMBL3774349, “Thiazolo[4,5-d]pyrimidines as a privileged scaffold in drug discovery” (Eur J Med Chem, 2016).

What was measured:
[1] = biological target: T1, Corticotropin-releasing factor receptor 1 (Homo sapiens) (UniProt P34998); assay: Displacement of [125I]-Tyr0 sauvagine from human CRF1 receptor expressed in HEK293 cells membrane homogenates at 1000 nM for 120 mins by scintillation counting in the presence of antalarmin; type: cell membranes
T1 sequence (whole entry): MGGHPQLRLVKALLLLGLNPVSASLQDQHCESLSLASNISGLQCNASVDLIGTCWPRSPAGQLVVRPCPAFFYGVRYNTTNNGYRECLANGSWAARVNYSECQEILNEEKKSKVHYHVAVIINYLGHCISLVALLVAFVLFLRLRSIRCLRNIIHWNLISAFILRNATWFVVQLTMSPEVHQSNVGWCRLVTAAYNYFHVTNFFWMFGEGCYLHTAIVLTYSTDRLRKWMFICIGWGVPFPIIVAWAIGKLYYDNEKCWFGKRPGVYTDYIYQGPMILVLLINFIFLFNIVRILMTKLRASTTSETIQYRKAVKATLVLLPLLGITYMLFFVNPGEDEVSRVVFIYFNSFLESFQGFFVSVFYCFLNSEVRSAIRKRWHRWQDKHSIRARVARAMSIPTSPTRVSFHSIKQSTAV

Semliki Forest virus = assay: Antiviral activity against Semliki forest virus infected in mouse; type: functional
Human betaherpesvirus 5 = assay: Antiviral activity against Human cytomegalovirus Towne infected in HFF cells after 2 hrs by plaque reduction assay; type: functional, cell-based; conditions: Human betaherpesvirus 5, Towne
[2] = Cytotoxicity against human MRC5 cells assessed as cell growth inhibition by aqueous non-Radioactivity Cell proliferation Assay; type: cell-based; conditions: read-out: TC50 (the source's name)
[3] = Cytotoxicity against monkey Vero cells assessed as cell growth inhibition by aqueous non-Radioactivity Cell proliferation Assay; type: cell-based; conditions: chlorocebus sabaeus, read-out: TC50 (the source's name)
[4] = Cytotoxicity against human KB cells assessed as cell growth inhibition by crystal violet staining based spectrophotometry; conditions: read-out: TC50 (the source's name)

| SMILES | inhibition [1] [%] | Activity (Semliki Forest virus) [%] | IC50 (Human betaherpesvirus 5) [µM] | CC50 [2] [µM] | CC50 [3] [µM] | CC50 [4] [µM] |
| --- | --- | --- | --- | --- | --- | --- |
| CCOC(=O)/C(C#N)=C1/Sc2c(N(CCOC)CCOC)nc(C)nc2N1c1ccc(C(C)C)cc1Br | 25 | – | – | – | – | – |
| CCCN(CC1CC1)c1nc(C)nc2c1SC(=C(C#N)C#N)N2c1ccc(C(C)C)cc1Br | 25 | – | – | – | – | – |
| Nc1nc(=O)c2sc(=O)n([C@@H]3O[C@H](CO)[C@@H](O)[C@H]3O)c2[nH]1 [ISATORIBINE] | – | 92 | – | – | – | – |
| CC(C)=CCn1c(=O)sc2c(=O)[nH]c(N)nc21 | – | – | 6.8 | 75 | 75 | 75 |
| CC/C=C/Cn1c(=O)sc2c(=O)[nH]c(N)nc21 | – | – | 0.5 | 75 | 75 | 75 |
